Patent US9057727B2, “Screening methods using G-protein coupled receptors and related compositions” (The General Hospital Corporation, priority 2007, dated 2015)
Where two headings read alike, the source gives them in different places. Square brackets hold non-standard residues; d marks the D form. Peptide text beside a SMILES is read from it. hArg = N=C(N)NCCCC[C@H](N)C(=O)O; Nle = CCCC[C@H](N)C(=O)O; Aib = CC(C)(N)C(=O)O

Legend:
[1] = biological target: T1, ROS 17/2.8 cells (endogenous rat PTHR) (Rattus norvegicus, UniProt P25961); assay: Delayed cAMP response in ROS 17/2.8 cells; format: cell-based
T1 construct: the rat osteoblastic cell line ROS17/2.8, which endogenously expresses the rat PTHR; endogenous in cells; host or cells: ROS 17/2.8 rat osteosarcoma cells (membranes or intact cells)
T1 sequence (P25961 27-591): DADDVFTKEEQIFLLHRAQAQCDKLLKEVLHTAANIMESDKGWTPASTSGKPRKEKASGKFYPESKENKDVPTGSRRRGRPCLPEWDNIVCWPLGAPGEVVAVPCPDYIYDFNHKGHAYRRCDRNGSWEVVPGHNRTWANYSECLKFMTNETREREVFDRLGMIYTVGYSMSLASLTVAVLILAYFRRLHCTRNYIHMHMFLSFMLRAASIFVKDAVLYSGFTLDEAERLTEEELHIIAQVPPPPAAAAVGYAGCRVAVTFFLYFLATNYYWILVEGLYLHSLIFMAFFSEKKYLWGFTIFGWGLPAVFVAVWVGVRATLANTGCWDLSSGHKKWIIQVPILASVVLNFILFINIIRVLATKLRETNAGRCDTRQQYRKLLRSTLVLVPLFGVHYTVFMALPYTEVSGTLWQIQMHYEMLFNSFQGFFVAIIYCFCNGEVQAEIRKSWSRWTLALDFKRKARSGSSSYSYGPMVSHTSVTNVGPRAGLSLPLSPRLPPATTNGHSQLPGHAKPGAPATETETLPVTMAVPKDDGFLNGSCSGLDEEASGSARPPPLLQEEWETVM
Procedure: The analogs used were [E^19],Mc-hPTH(1-34)OH (SEQ ID NO:21) and [A^23,E^19],Mc-hPTH(1-34)OH (SEQ ID NO:28) (Mc=Ala^1,3,12,Gln^10,Arg^11,Trp^14, Arg^19).
The data in FIG. 21B are expressed as a percent of the maximum response observed for each ligand, determined by incubating the cells with ligand in the presence of IBMX for 10 minutes (no ligand wash-out). These values were 67±6; 68±3; and 71±1 pmole/well, respectively. The basal (vehicle) cAMP value was 3.7±0.4 pmole/well.
Following treatment of cells with a ligand, the intracellular cAMP levels were measured by radioimmuno assay, as described (Shimizu et al., J. Biol. Chem. 276:49003-49012 (2001)). The capacities of ligands to produce a delayed cAMP response in cells after a brief exposure to the ligand was assessed as follows. […]

[2] = biological target: T2, human PTHR, G protein-uncoupled conformation (R^0) (Homo sapiens, UniProt Q03431); assay: Competition binding to R0 conformation of hPTHR (COS-7 membranes, GTPγS, 125I-PTH(1-34) tracer)
T2 construct: expressed in transfected cells; host or cells: COS-7, transient (Fugene-6)
T2 sequence (Q03431 27-593): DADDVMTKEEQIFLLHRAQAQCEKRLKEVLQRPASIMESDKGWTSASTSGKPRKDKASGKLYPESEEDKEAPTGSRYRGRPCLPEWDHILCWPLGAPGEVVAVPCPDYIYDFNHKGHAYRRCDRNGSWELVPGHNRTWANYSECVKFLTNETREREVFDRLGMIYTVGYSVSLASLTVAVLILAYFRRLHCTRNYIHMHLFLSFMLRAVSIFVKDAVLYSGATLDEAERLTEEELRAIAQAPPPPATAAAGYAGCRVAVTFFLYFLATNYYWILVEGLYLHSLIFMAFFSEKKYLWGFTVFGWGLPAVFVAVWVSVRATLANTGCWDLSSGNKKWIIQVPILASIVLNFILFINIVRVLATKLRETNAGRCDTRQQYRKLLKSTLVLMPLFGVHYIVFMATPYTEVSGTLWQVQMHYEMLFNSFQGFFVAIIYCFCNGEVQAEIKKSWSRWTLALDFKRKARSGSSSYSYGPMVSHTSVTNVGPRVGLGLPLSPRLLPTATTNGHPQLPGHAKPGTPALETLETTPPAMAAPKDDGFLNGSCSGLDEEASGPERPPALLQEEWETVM
Outline: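 Membranes from hPTHR-transfected COS-7 cells (20-100 μg/mL protein) incubated 90 min with radioligand (~150,000 cpm/ml) and unlabeled ligands, then filtered. Specific binding expressed as % of binding without competitor.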

[3] = Calcemic action in normal rats (blood ionized calcium); format: in vivo; details: for calcemic action (blood ionized calcium), in words: normal rats, i.v.
Procedure: Binding to the rat PTHR was also measured in vitro.
Concentration of peptides in stock solution were adjusted by dilution with 25 mmol/L phosphate-citrate buffer/100 mmol/L NaCl/0.05% Tween 80 (pH. 5.0) (PC-buffer). All peptides were allowed to stand on ice immediately before administration.
Female SD-IGS rat at 8 weeks of age (Charles River Japan, Inc.) were measured for their body weight. Blood was collected by tail vein into heparinized capillary tubes and measured for baseline levels of blood ionized calcium and pH using Ca^++/pH analyzer (Model 634/Bayer Medical Ltd.) to give the corrected level of ionized calcium at pH 7.4 for each sample. Rats received intravenous administration of each peptides at a dose of 1 ml/kg. Peptides were administered to groups of 6 rats each respectively. At 1, 2, 4, or 6 hours after administration, blood was collected by tail vein to monitor the time course of corrected blood ionized calcium levels. The time course of changes in corrected ionized calcium levels, compared to vehicle, and are expressed as means+/−standard error.

[4] = biological target: T3, hPTHR (Homo sapiens, UniProt Q03431); assay: Delayed cAMP response after ligand wash-out in HKRK-B64 cells; format: cell-based; parameters: expressed in transfected cells; details: HKRK-B64, at two hours (so in the source); read-out: cAMP response after wash-out, % of maximum response
T3 sequence (Q03431 27-593): T2 sequence (Q03431 27-593)

[5] = tested on: PTHR-CFPIC3/YFPCT (PTHR-cam); assay: FRET analysis of ligand binding/receptor activation in HEK-293 cells; format: cell-based, human
[6] = biological target: T4, human PTHR, G protein-coupled conformation (RG) (Homo sapiens, UniProt Q03431); assay: Competition binding to RG conformation of hPTHR (COS-7 membranes, GαsND, 125I-[Aib1,3,M]PTH(1-15) tracer); details: Table 5; read-out: IC50 RG, ^125I-PTH(1-15) + GsND
T4 construct: expressed in transfected cells; host or cells: COS-7, transient (Fugene-6); membranes
T4 sequence (Q03431 27-593): T2 sequence (Q03431 27-593)

[7] = Serum and urinary calcium and phosphate in TPTX rats; format: in vivo
Procedure: Five-week-old male Crl:CD(SD) rats were obtained from Charles River Laboratories Japan, Inc. (Kanagawa, Japan) and acclimated for 1 week under standard laboratory conditions at 20-26° C. and 35-75% humidity. The rats received free access to tap water and standard rodent chow (CE-2) containing 1.1% calcium, 1.0% phosphate and 250 IU/100 g of vitamin D3 (Clea Japan, Inc., Shizuoka, Japan).
Thyroparathyroidectomy (TPTX) was performed on six-week-old rats. TPTX rats were selected for use based on serum ionized calcium (iCa) levels (<1.0 mM) in samples taken from tail vein bleeding at 24 hours or […] after the operation using the electrode method. The TPTX rats were divided into six groups of five animals based on iCa levels at 48 hours after the operation. TPTX-vehicle group intravenously received the vehicle alone (10 mM acetic acid solution) at a dose of 1 ml/kg body weight administered to the tail vein.
Blood was obtained from the tail vein for detecting iCa at 1, 2, 4, 6, and 24 hours after each injection. Ionized calcium levels were determined by the electrode method using an autoanalyzer (M-634, Chiba Corning Diagnostics Co. Ltd., Tokyo, Japan).
We also studied the effects of the M-PTH(1-14)/PTHrP(15-36) hybrid peptide (SP-PTH) on serum and urinary calcium and phosphate.

[8] = biological target: hPTH1R (RG form of the human PTH receptor); assay: RG memb: hPTH1R+dnGS *M-PTH(1-15)
[9] = biological target: T5, hPTH1R (R0 form of the human PTH receptor) (Homo sapiens, UniProt Q03431); assay: R0 memb: hPTH1R*PTH( 1-34)+GTPgS
T5 construct: expressed in transfected cells; host or cells: COS-7, transient (Fugene-6)

fold reduction of binding affinity for R^0 by Trp^23→Ala substitution ([2]; versus [E^19,Mc]PTH(1-34)) | Emax [4] | IC50 [6] | R0:RG ([2]; Table 5, fold weaker affinity for R0 than RG) | IC50 [8] | IC50 [9] | Compound | duration of cAMP signaling, in words [1] | calcemic action (blood ionized calcium), in words [3] | FRET signal after exchange to ligand-free buffer, in words [5] | duration of calcemic / sCa and sPi effect, in words [7] | duration of calcemic / sCa and sPi effect, in words ([7]; listed as SP-PTH) | serum calcium (sCa) and serum phosphorus (sPi), in words ([7]; single i.v. 1.25 nmol/kg) | urinary calcium 0-6 hours, in words ([7]; single i.v. 1.25 nmol/kg) | urinary phosphate 0-6 hours, in words ([7]; single i.v. 1.25 nmol/kg) | calcemic action compared with control peptides, in words ([3]; normal and TPTX rats)
10 fold | – | – | – | – | – | AVAEIQLMHQRAKWLNSMERVEALRKKLQDVHNF [[A^23,E^19],Mc-hPTH(1-34)OH] | reduced duration of cAMP signaling in cells | reduced the hypercalcemic effect | – | – | – | – | – | – | –
– | 23% | 0.74 ± 0.18 nM | 1,397 | – | – | CCCC[C@H](NC(=O)[C@H](CC(C)C)NC(=O)[C@H](CCC(N)=O)NC(=O)[C@@H](NC(=O)[C@H](CCC(=O)O)NC(=O)C(C)(C)NC(=O)[C@@H](NC(=O)C(C)(C)N)C(C)C)[C@@H](C)CC)C(=O)N[C@@H](Cc1c[nH]cn1)C(=O)N[C@@H](CCC(N)=O)C(=O)N[C@@H](CCCCNC(=N)N)C(=O)N[C@@H](C)C(=O)N[C@@H](CCCCN)C(=O)N[C@@H](Cc1c[nH]c2ccccc12)C(=O)N[C@@H](Cc1ccc(O)cc1)C(N)=O [[Aib^1,3,M]rPTH(1-15)NH2, [Aib^1,3,Nle^8,Gln^10,homoarginine^11,Ala^12,Trp^14,Tyr^15]rPTH(1-15)NH2, reference compound] (H-[Aib]V[Aib]EIQL[Nle]HQ[hArg]AKWY-NH2; N-terminus assumed) | – | – | began to decay immediately upon exchange of the buffer to a ligand-free one | – | – | – | – | – | –
– | – | – | – | 0.67 nM | 2.7 nM | CC[C@H](C)[C@H](NC(=O)[C@H](CCC(=O)O)NC(=O)[C@H](C)NC(=O)[C@@H](NC(=O)[C@H](Cc1c[nH]cn1)NC(=O)[C@@H](NC(=O)[C@H](CCC(=O)O)NC(=O)[C@H](C)NC(=O)[C@@H](NC(=O)[C@H](CC(C)C)NC(=O)[C@H](Cc1c[nH]cn1)NC(=O)[C@H](Cc1c[nH]cn1)NC(=O)[C@H](CC(C)C)NC(=O)[C@H](Cc1ccccc1)NC(=O)[C@H](Cc1ccccc1)NC(=O)[C@H](CCCNC(=N)N)NC(=O)[C@H](CCCNC(=N)N)NC(=O)[C@H](CCCNC(=N)N)NC(=O)[C@H](CC(C)C)NC(=O)[C@H](CC(=O)O)NC(=O)[C@H](CCC(N)=O)NC(=O)[C@@H](NC(=O)[C@H](Cc1c[nH]c2ccccc12)NC(=O)[C@H](CCCCN)NC(=O)[C@H](C)NC(=O)[C@H](CCCNC(=N)N)NC(=O)[C@H](CCC(N)=O)NC(=O)[C@H](Cc1c[nH]cn1)NC(=O)[C@H](CCSC)NC(=O)[C@H](CC(C)C)NC(=O)[C@H](CCC(N)=O)NC(=O)[C@@H](NC(=O)[C@H](CCC(=O)O)NC(=O)[C@H](C)NC(=O)[C@@H](NC(=O)[C@H](C)N)C(C)C)[C@@H](C)CC)[C@@H](C)CC)[C@@H](C)CC)[C@@H](C)CC)[C@@H](C)O)C(=O)O [Mc-PTH(1-14)/PTHrP(15-36)] (H-AVAEIQLMHQRAKWIQDLRRRFFLHHLIAEIHTAEI-OH) | prolonged cAMP signaling | Prolonged calcemic effects | – | prolonged calcemic effects | maintained for 24 hrs | increased sCa and decreased sPi to normal levels within 6 hrs | decreased urinary calcium | increased urinary phosphate level | higher calcemic actions than did PTH(1-34)
